Columns and labels:
PI 3-kinase alpha = PI 3-kinase alpha (Homo sapiens, UniProt P42336); test: Kinase Glo Luminescent Kinase Assay (Kglo), assay A; format: biochemical; conditions: read-out: Assay A PI3Kα IC50
Method: (§1) Kinase Glo Luminescent Kinase Assay (Kglo) for Pb 3-Kinase Alpha (A), Pb 3-Kinase Beta (B), Vps34 (C), Pb 4-Kinase Beta (D)
(§2) The Kinase Glo Luminescent Kinase Assay (Promega, Madison/Wis., USA) is a homogeneous HTS method of measuring kinase activity by quantifying the amount of ATP remaining in solution following a kinase reaction.
(§3) L-α-phosphatidylinositol (PI), provided as 10 mg/ml solution in methanol, was transferred into a glass tube and dried under a nitrogen beam. It was then resuspended in 3% OctylGlucoside (1-0-n-octyl-beta-D-glucopyranoside) by vortexing and stored at 4° C. 5 μL of a mix of PI/OctylGlucoside with the PI 3-kinase alpha and PI 3-kinase beta subtypes, or Vps34 or PI 4-kinase beta were added. Kinase reactions were started by the addition of 5 μl of an ATP-mix containing in a final volume 10 μL 10 mM TRIS-HCl pH 7.5, 3 mM MgCl2, 50 mM NaCl, 0.05% CHAPS, 1 mM DTT and 1 μM ATP at room temperature.
(§4) All fits were performed with the program XLfit4 (ID Business Solutions, Guildford, UK).

PI 3-kinase beta = PI 3-kinase beta (Homo sapiens, UniProt P42338); test: Kinase Glo Luminescent Kinase Assay (Kglo), assay B; format: biochemical; conditions: read-out: Assay B PI3Kβ IC50
Method: as §1, §2, §3, §4

Vps34 = Vps34 (Homo sapiens, UniProt Q8NEB9); test: Kinase Glo Luminescent Kinase Assay (Kglo), assay C; format: biochemical; conditions: read-out: Assay C VPS34 IC50
Chain of Vps34 (Q8NEB9 whole entry, species assumed): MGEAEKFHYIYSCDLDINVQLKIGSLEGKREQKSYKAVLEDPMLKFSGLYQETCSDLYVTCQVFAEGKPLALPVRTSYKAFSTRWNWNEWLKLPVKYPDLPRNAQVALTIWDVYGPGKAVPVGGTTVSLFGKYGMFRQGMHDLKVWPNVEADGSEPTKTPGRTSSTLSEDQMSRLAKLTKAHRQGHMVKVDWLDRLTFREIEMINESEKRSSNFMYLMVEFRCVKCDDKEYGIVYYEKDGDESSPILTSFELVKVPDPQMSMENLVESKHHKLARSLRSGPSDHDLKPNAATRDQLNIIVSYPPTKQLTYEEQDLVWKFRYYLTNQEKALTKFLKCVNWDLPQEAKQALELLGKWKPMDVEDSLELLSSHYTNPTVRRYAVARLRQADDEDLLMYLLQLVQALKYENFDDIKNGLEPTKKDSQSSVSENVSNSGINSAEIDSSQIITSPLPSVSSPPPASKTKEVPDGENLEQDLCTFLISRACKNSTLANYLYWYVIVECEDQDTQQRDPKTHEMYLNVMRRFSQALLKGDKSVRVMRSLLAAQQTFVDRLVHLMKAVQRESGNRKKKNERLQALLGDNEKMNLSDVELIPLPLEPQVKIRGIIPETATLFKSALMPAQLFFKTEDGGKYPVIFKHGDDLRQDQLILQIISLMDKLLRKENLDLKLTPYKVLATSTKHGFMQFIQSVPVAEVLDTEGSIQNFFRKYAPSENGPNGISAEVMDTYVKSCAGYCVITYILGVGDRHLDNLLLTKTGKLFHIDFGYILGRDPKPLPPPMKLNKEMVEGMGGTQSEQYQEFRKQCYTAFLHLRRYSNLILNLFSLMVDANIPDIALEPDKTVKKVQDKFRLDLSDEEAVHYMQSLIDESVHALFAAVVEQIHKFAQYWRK

PI 4-kinase beta = PI 4-kinase beta (Homo sapiens, UniProt Q9UBF8); test: Kinase Glo Luminescent Kinase Assay (Kglo), assay D; format: biochemical; conditions: read-out: Assay D PI4Kβ IC50
Chain of PI 4-kinase beta (Q9UBF8 whole entry): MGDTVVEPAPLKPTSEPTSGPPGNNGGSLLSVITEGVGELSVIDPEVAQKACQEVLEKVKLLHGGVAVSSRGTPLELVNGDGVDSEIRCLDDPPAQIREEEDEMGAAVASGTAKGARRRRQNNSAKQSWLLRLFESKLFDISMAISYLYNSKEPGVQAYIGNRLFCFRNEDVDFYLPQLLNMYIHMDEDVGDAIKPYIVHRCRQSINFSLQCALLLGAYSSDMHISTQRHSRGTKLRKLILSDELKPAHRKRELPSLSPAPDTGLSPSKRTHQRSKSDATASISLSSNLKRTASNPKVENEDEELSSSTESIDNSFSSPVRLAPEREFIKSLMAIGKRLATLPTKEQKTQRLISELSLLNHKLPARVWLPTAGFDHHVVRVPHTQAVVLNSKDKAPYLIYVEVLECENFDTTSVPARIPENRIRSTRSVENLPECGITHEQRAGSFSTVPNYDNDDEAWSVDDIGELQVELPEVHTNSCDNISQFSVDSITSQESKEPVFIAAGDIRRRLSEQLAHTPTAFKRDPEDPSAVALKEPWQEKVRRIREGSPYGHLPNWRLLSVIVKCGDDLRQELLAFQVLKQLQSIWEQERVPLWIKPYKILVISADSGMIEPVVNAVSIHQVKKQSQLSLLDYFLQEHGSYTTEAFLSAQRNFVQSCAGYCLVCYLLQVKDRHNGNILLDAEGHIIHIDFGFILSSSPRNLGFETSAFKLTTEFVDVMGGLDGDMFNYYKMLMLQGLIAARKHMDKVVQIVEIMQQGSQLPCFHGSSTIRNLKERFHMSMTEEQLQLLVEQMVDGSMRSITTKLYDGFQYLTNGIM

PI 3-kinase gamma [1] = target: T1, PI 3-kinase gamma (Homo sapiens, UniProt P48736); test: TR-FRET Adapta assay, assay E; format: biochemical; conditions: read-out: Assay E PI3Kγ IC50
T1 sequence (P48736 whole entry): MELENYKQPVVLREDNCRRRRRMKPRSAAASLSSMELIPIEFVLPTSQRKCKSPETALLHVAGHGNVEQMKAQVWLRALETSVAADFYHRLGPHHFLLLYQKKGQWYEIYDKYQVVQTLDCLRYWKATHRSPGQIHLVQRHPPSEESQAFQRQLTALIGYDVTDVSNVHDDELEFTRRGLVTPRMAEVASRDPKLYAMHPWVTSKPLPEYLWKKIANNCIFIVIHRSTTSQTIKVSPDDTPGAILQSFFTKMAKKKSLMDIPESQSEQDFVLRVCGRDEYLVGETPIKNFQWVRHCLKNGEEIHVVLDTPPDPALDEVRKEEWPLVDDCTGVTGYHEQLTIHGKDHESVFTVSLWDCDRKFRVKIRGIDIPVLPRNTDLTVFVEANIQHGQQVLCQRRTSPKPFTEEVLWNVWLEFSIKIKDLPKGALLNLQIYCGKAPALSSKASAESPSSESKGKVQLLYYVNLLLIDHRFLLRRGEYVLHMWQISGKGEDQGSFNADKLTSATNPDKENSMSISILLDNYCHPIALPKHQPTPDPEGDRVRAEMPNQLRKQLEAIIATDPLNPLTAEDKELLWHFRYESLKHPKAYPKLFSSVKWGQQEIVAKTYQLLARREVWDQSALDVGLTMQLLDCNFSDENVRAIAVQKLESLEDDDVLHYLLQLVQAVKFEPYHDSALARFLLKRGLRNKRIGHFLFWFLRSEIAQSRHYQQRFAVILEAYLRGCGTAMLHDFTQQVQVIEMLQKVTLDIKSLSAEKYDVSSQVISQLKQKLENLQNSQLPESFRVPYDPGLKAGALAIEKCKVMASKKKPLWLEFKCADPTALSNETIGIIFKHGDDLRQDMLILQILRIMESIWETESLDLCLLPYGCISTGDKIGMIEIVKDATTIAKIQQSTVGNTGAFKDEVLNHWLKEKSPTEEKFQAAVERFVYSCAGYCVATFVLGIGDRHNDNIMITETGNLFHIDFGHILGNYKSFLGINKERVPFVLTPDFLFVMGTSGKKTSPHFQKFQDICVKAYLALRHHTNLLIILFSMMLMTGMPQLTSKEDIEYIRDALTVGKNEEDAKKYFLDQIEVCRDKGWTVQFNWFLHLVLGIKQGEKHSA

mTOR = mTOR (Homo sapiens, UniProt P42345); test: Lanthascreen kinase binding assay, assay G; conditions: read-out: Assay G mTOR IC50
Method: Lanthascreen™ Kinase Binding Assay for mTOR (G)
Binding of an inhibitor to the kinase competes for binding with the tracer, resulting in a loss of FRET.
50 nL of compound dilutions were dispensed onto white 384-well small volume polystyrene plate.

PI 3-kinase gamma [2] = target: T1, PI 3-kinase gamma; test: Cellular U937 AKT assay K1 (MSD); format: cell-based; conditions: U937 cells, K1 format; read-out: Assay K1 PI3Kγ IC50
[3] = test system: IL-8-induced neutrophil shape change in human whole blood; test: Whole blood neutrophil shape change assay (L); format: cell-based; conditions: Homo sapiens, Neutrophil, IL-8, human whole blood, read-out: Assay L WBSC IC50
PI 3-kinase delta = PI 3-kinase delta (Homo sapiens, UniProt O00329); test: TR-FRET Adapta assay, assay F; conditions: read-out: Assay F PI3Kδ IC50
Chain of PI 3-kinase delta (O00329 whole entry): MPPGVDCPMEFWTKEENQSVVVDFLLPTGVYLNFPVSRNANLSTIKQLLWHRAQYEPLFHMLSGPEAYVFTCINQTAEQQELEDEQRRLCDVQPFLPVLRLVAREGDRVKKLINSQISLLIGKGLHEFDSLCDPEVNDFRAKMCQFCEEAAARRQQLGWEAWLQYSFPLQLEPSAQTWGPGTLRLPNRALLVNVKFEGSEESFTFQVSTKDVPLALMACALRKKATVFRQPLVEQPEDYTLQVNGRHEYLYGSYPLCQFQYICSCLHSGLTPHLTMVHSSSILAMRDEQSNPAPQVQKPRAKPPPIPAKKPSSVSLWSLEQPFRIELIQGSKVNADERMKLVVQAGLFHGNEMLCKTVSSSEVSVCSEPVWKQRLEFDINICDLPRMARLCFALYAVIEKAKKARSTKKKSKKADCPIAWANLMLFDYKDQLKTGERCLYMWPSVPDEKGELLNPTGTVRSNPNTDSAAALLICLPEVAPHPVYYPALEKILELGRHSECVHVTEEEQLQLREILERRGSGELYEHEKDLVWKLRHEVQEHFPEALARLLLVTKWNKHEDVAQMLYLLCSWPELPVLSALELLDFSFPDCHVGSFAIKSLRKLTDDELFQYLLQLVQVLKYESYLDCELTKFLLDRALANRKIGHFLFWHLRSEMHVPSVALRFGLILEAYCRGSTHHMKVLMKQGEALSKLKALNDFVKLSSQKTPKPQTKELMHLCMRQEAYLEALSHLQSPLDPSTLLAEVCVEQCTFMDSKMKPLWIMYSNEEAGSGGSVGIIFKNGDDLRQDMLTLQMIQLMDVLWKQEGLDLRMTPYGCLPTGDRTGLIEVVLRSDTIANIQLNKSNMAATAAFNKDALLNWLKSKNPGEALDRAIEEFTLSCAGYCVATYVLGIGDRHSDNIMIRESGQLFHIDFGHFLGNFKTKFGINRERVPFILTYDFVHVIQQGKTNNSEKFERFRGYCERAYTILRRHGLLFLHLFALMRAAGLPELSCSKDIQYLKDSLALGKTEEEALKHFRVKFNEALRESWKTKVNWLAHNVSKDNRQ
Chain of PI 3-kinase delta (P27986 461-568 partner): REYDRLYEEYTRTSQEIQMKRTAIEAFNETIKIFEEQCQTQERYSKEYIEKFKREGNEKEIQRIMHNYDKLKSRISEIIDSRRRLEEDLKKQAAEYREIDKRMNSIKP

[4] = Microsomal clearance assay (M); conditions: intrinsic clearance in rat liver microsomes
Method: The experiments were performed in 96-well glass plates at 37° C. on an automated Tecan EVO platform. Test compounds at a concentration of 10 mM in pure DMSO were diluted 1:1000 in water to 10 μM. […] Reactions were initiated by the addition of 150 μL of a cofactor solution containing 2 mM NADPH.

Chain of PI 3-kinase alpha (P42336 whole entry): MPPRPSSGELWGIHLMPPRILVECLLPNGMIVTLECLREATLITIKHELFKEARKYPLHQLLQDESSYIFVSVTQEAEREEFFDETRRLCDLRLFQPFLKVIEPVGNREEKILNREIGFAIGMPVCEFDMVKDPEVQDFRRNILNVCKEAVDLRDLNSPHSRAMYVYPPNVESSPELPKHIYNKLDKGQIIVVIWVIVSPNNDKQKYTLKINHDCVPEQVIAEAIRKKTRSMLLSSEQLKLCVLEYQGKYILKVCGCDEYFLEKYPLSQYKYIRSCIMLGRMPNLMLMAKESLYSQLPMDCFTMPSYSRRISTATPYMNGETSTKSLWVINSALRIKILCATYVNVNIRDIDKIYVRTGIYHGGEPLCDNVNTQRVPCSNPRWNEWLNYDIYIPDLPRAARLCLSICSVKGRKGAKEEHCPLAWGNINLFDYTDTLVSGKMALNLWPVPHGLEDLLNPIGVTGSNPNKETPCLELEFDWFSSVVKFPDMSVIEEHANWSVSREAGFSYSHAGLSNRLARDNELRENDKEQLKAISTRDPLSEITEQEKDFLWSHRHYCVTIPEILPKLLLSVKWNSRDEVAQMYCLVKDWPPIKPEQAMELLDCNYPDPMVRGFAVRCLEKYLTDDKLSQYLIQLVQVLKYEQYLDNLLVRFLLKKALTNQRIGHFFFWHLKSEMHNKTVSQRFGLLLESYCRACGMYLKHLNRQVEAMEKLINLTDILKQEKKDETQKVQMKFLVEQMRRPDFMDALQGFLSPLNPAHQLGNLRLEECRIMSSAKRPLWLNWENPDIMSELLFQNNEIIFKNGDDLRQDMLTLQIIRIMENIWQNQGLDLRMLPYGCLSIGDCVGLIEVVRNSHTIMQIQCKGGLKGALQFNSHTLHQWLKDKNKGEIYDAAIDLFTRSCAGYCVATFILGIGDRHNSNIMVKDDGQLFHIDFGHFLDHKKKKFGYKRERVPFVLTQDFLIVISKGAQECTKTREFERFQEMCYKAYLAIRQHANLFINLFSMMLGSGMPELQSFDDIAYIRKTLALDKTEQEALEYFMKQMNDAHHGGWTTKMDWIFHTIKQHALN

IC50 (PI 3-kinase alpha) [nM] | IC50 (PI 3-kinase beta) [nM] | IC50 (Vps34) [µM] | IC50 (PI 4-kinase beta) [µM] | IC50 (PI 3-kinase gamma [1]) [nM] | IC50 (mTOR) [µM] | IC50 (PI 3-kinase gamma [2]) [nM] | IC50 [3] [nM] | IC50 (PI 3-kinase delta) [nM] | Assay M RLM CI(int) [4] [µL/min/mg] | SMILES
700 | 2500 | > 10 | 3.8 | 74 | 2.5 | 137 | 805 | 2900 | 52 | Cc1ccc(S(=O)(=O)NCC(F)F)cc1-c1cnc(N)c(-n2cncn2)n1 [Example 34, 3-(5-Amino-6-[1,2,4]triazol-1-yl-pyrazin-2-yl)-N-(2,2-difluoro-ethyl)-4-methyl-benzenesulfonamide]
900 | 4100 | > 9.55 | > 9.55 | 36 | 7.4 | 262 | 1590 | 730 | 53 | Cc1ccc(S(=O)(=O)NCC(C)(C)O)cc1-c1cnc(N)c(-c2nc(C3CC3)no2)n1 [Example 95, 3-(5-Amino-6-(3-cyclopropyl-1,2,4-oxadiazol-5-yl)pyrazin-2-yl)-N-(2-hydroxy-2-methylpropyl)-4-methylbenzenesulfonamide]
280 | 1200 | 7.6 | 3.9 | 22 | 6.5 | 53 | 3210 | 370 | 63 | Cc1ccc(S(=O)(=O)NCC(C)(C)O)cc1-c1cnc(N)c(-c2cc(C3CC3)no2)n1 [Example 79, 3-(5-Amino-6-(3-cyclopropylisoxazol-5-yl)pyrazin-2-yl)-N-(2-hydroxy-2-methylpropyl)-4-methylbenzenesulfonamide]
920 | 2600 | > 10 | 8.45 | 69 | 9 | 645 | 1790 | 900 |  | Cc1ccc(S(=O)(=O)NC[C@H]2CCCO2)cc1-c1cnc(N)c(-n2cncn2)n1 [Example 127.14]
160 | 850 | > 10 | 8 | 17 | 0.25 | 51 | 478 | 110 | 710 | Cc1ccc(S(=O)(=O)NCC(=O)C(C)(C)C)cc1-c1cnc(N)c(-n2cncn2)n1 [Example 36, 3-(5-Amino-6-[1,2,4]triazol-1-yl-pyrazin-2-yl)-N-(3,3-dimethyl-2-oxo-butyl)-4-methyl-benzenesulfonamide]
80 | 940 | > 9.1 | 0.74 | 13 | 3.9 | 18 | 1020 | 70 | 78 | Cc1ccc(S(=O)(=O)NCCC(C)(C)O)cc1-c1cnc(N)c(-c2ccc(CO)s2)n1 [Example 119.35]
230 | 4200 | > 9.1 | > 9.1 | 34 | 5.47 | 134 | 881 | 300 | 45 | Cc1ccc(S(=O)(=O)NCCC(C)(C)O)cc1-c1cnc(N)c(-c2ccnn2C)n1 [Example 77, 3-(5-Amino-6-(1-methyl-1H-pyrazol-5-yl)pyrazin-2-yl)-N-(3-hydroxy-3-methylbutyl)-4-methylbenzenesulfonamide]
2600 | 7300 | > 10 | > 10 | 81 | > 10 | 487 | 1530 | 920 | 59 | Cc1cc(C)n(-c2nc(-c3cc(S(=O)(=O)NCC(C)(C)O)ccc3C)cnc2N)n1 [Example 48, 3-(5-Amino-6-(3,5-dimethyl-1H-pyrazol-1-yl)pyrazin-2-yl)-N-(2-hydroxy-2-methylpropyl)-4-methyl benzenesulfonamide]
120 | 1370 | > 9.1 | 0.76 | 99 | 3.99 | 42 | 7080 | 40 | 137 | Cc1ccc(-c2nc(-c3cc(S(=O)(=O)NCCC(C)(C)O)ccc3C)cnc2N)s1 [Example 119.44]
710 | 2340 | > 9.1 | 0.88 | 69 | > 9.1 | 200 | 2240 | 360 | 41 | Cc1ccc(S(=O)(=O)NCCC(C)(C)O)cc1-c1cnc(N)c(-c2cc[nH]n2)n1 [Example 119.42]
260 | 1300 | > 10 | 3.9 | 61 | > 10 | 153 | 1620 | 620 |  | Cc1ccc(S(=O)(=O)NCC2CCCOC2)cc1-c1cnc(N)c(-n2cncn2)n1 (centres unmarked) [Example 127.19]
250 |  | > 9.1 | 0.61 | 110 | 6.7 | 81 | 9190 | 70 | 122 | Cc1ccc(S(=O)(=O)NCCC(C)(C)O)cc1-c1cnc(N)c(-c2ccc(C3CC3)s2)n1 [Example 119.46]
1700 | 1400 | > 9.1 | 2.5 | 38 | > 9.1 | 200 | 4170 | 310 | 31 | Cc1ccc(S(=O)(=O)NC2(CO)CC2)cc1-c1cnc(N)c(-n2cncn2)n1 [Example 98, 3-(5-Amino-6-(1H-1,2,4-triazol-1-yl)pyrazin-2-yl)-N-(1-(hydroxymethyl)cyclopropyl)-4-methylbenzenesulfonamide]
680 | 4300 | > 9.1 | 8.9 | 26 | > 9.1 | 280 | 759 | 560 | 34 | Cc1ccc(S(=O)(=O)NCC2(O)CC2)cc1-c1cnc(N)c(-n2cncn2)n1 [Example 28, 3-(5-Amino-6-[1,2,4]triazol-1-yl-pyrazin-2-yl)-N-(1-hydroxy-cyclopropylmethyl)-4-methyl-benzenesulfonamide]
190 | 1900 | > 10 | 5.3 | 24 | 7.6 | 126 | 3850 | 790 |  | Cc1ccc(S(=O)(=O)NCCC2(O)CCCC2)cc1-c1cnc(N)c(-n2cncn2)n1 [Example 127.36]
1100 | 2200 | > 10 | 6.6 | 60 | > 10 | 266 | 2180 | 3200 |  | Cc1ccc(S(=O)(=O)NCC2(O)COC2)cc1-c1cnc(N)c(-n2cncn2)n1 [Example 127.47]

Reference: patent US10004732B2 (Novartis AG, priority 2014, dated 2018)
